The data set is described as follows: Hygroscopicity, VTI instrument SGA 100. The following applies: for weight increase (moisture): 25 °C; for hygroscopicity (in words): hydrochloride.

The text below walks through data of US8609711B2, “Crystalline N-{(1S)-2-amino-1-[(3-fluorophenyl)methyl]ethyl}-5-chloro-4-(4-chloro-1-methyl-1H-pyrazol-5-yl)-2-thiophenecarboxamic hydrochloride” (GlaxoSmithKline LLC, priority 2009, dated 2013).

“Also recorded” adds a separate entry of the source.

Excerpt: There were 24 Relative Humidity steps used. The Relative Humidity at each step is as follows.

Consider `Cl.Cn1ncc(Cl)c1-c1cc(C(=O)N[C@H](CN)Cc2cccc(F)c2)sc1Cl` [Compound A], for which the “hygroscopicity (in words)” value is on record as “non-hygroscopic; also recorded: low level of hygroscopicity”. Besides, where the note is “no drying, 24 relative humidity steps between 5 and 90, max equilibrium time 240 min”, the “weight increase (moisture)” value is reported as “less than 1 % w/w”.

`Cl.Cn1ncc(Cl)c1-c1cc(C(=O)N[C@H](CN)Cc2cccc(F)c2)sc1Cl` [Example 3]: the “hygroscopicity (in words)” value was “hygroscopic; also recorded: high level of hygroscopicity”. Besides, the “weight increase (moisture)” value (drying at 60 °C, 19 relative humidity steps between 0 and 90, max equilibrium time 300 min) was “more than 18 % w/w”.
